Activity calls are given as the source filed them.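 How the source made its calls: active means dose response that fits an S-shaped curve with fit quality R squared above 0.5; inactive means the rest.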

A word on the EC50: it is the concentration giving half of the maximal effect.

Sequence of G protein-activated inward rectifier potassium channel 1 (Rattus norvegicus) (P63251 whole entry, looked up): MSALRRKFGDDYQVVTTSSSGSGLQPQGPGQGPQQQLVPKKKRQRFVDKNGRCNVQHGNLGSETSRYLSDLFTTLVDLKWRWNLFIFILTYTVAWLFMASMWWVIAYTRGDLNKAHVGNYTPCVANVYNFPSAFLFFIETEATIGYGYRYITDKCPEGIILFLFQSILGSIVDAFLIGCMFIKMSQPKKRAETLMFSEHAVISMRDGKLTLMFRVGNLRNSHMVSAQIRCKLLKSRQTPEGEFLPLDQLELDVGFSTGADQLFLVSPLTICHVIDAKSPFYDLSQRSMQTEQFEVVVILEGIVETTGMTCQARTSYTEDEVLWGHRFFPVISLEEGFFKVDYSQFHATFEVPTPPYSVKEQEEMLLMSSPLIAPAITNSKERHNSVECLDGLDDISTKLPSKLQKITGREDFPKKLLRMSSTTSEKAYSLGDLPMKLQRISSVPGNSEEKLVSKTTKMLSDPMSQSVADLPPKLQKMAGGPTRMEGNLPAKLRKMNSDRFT

One assay addresses G protein-activated inward rectifier potassium channel 1 (Rattus norvegicus) (UniProt P63251). The experiment in a line: alpha2C adrenergic receptor agonists via GIRK, dose response, cell-based, thallium flux (AID 435014). To be noted: HEK293 alpha2C/GIRK1/2, thallium flux fluorescence.
For `CN(C)c1ccc(/C=C/C(O)=C2/C(=O)N(C)C3(C)CC2c2ccccc2O3)cc1` (stereo not given), the EC50 was 1990 nM.
For `Cc1c2ccncc2c(C)c2c1[nH]c1ccccc12`, the EC50 was 3080 nM.
Regarding `CC(=O)OCC[N+](C)(C)C`, the concentration for a half-maximal effect (EC50) was 134 nM.
Same read-out and setting: then `C[C@H]1OC[C@@H](C[N+](C)(C)C)O1`, with 393 nM.
On the same count and under the same terms, the result for `Brc1c(NC2=NCCN2)ccc2nccnc12` reads 82 nM.

Still in this assay, the particulars now being: HEK293 alpha2C/GIRK1/2, thallium flux fluorescence; at 10 µM (top of the series).
For `N#CCc1nc(CSc2nc3ccccc3s2)cs1`, the activation result is “inactive”.
On the same count and under the same terms, the result for `O=c1c(-c2ccc3c(c2)OCCO3)c(C(F)(F)F)oc2cc(O)cc(O)c12` reads “inactive”.
Still for that read-out and setting: then `CCOc1ccc2nc(NC(=O)CSc3nc4ccccc4c(=O)n3Cc3ccco3)sc2c1`, with “inactive”.
The same measure, in the same setting: then `CCOC(=O)c1c(-c2ccc(C)o2)csc1NC(=O)COC(=O)c1cccs1`, with “inactive”; and `CCCOc1ccc(-c2nnn(CC(=O)Nc3cccc(C(=O)OC)c3)n2)cc1`, with “inactive”; and `CCOC(=O)c1sc(NC(=O)c2noc3c2CCCC3)c(C(=O)OCC)c1C`, with “inactive”.
Take `O=S(=O)(c1ccccc1)N(Cc1nc(-c2ccccc2)no1)C1CCCCC1`: the activation result is “inactive”.
Same read-out and setting: the result for `c1ccc2c(-c3nc(C4CCCCC4)no3)cc(-c3ccncc3)nc2c1` reads “inactive”.
The same measure, in the same setting: the result for `COC(=O)c1ccccc1NC(=O)c1ccc(-c2ccccc2F)o1` reads “inactive”.
For `CCN(CC)c1ccc2cc(C(=O)Nc3ccccn3)c(=O)oc2c1`, the activation result was “inactive”.
The same measure, in the same setting: then `N#Cc1nc(COc2ccc(Br)cc2)oc1N1CCN(Cc2ccccc2)CC1`, with “inactive”.
Consider `COc1ccc(-c2noc(CCC(=O)Nc3nc4ccccc4s3)n2)cc1`, for which the activation entry is “inactive”.
In the case of `Cc1ccc2c(C)nc(Nc3nc(CSc4nnnn4-c4ccccc4)cc(=O)[nH]3)nc2c1`, the activation entry is “inactive”.
On the same count and under the same terms, then `COc1ccc(-c2oc3ncn4nc(COc5ccccc5)nc4c3c2-c2ccc(OC)cc2)cc1`, with “inactive”; and `COc1cccc2c1C(=O)c1c(O)c3c(c(O)c1C2=O)C[C@@](O)(C(C)=O)C[C@@H]3O[C@H]1C[C@H](N)[C@H](O)[C@H](C)O1`, with “inactive”.
Still for that read-out and setting: then `CC1(C)Cc2c(C#N)c(SCCOc3ccccc3)nc(N3CCOCC3)c2CO1`, with “inactive”.
Still for that read-out and setting: then `N/C(=N\c1nc2ccccc2o1)NC(=O)c1ccccc1NC(=O)c1ccccc1`, with “inactive”; and `CSc1nc2sc3c(c2c(=O)[nH]1)CCC(C)C3` (stereo not given), with “inactive”; and `C=CCn1c(=S)[nH]c2ccccc2c1=O`, with “inactive”.
On to `COc1cc(C(=O)Nc2cccc(-c3nc4cc(C)ccc4o3)c2)cc(OC)c1OC`, for which the activation result is “inactive”.
With `Cc1c(C(=O)NC2CCCc3ccccc32)oc2ccc(S(=O)(=O)N3CCOCC3)cc12` (stereo not given), the activation result was “inactive”.
On the same count and under the same terms, the result for `COc1ccc(-c2nnc(SCC(=O)Nc3ccc(Cl)cc3)n2C)cc1` reads “inactive”.
Consider `O=C(c1ccc(Cl)cc1)N1CCCCC(Sc2nnc(-c3ccc4c(c3)OCO4)o2)C1=O` (stereo not given), for which the activation result is “inactive”.
As for `CCOC(=O)c1ccc(NC(=O)NC(C)C2CCCO2)cc1` (stereo not given), the activation entry is “inactive”.
Same read-out and setting: the result for `CC(=O)OC(C)C[N+](C)(C)C` (stereo not given) reads “inactive”; that for `CCOc1ccc(S(=O)(=O)N2CCN(c3ccc(C)cc3C)CC2)cc1`, “inactive”.
The same measure, in the same setting: then `COc1ccc(-c2noc(-c3cc(Cl)ccc3Cl)n2)cc1OC`, with “inactive”; and `O=C(NCc1ccco1)c1cc2cc3ccc(Cl)cc3nc2o1`, with “inactive”.
Still for that read-out and setting: then `CCSc1nnc(NC(=O)NC(CC)(C(F)(F)F)C(F)(F)F)s1`, with “inactive”; and `CCC(=O)Oc1ccc(C(CC)C(CC)c2ccc(OC(=O)CC)cc2)cc1` (stereo not given), with “inactive”; and `C[C@]12CC[C@@H]3c4ccc(OC(=O)c5ccccc5)cc4CC[C@H]3[C@@H]1CC[C@@H]2O`, with “inactive”.
Regarding `COc1ccc2cc(CN(Cc3ccco3)C(c3nnnn3C3CCCCC3)C(C)C)c(=O)[nH]c2c1` (stereo not given), the activation result is “inactive”.
Still for that read-out and setting: the result for `CC1(C)Cc2c(c(N3CCOCC3)nc3sc4c(NCc5ccco5)nnnc4c23)CS1` reads “inactive”; that for `O=S(=O)(c1ccc(S(=O)(=O)N(Cc2ccco2)Cc2ccccc2Cl)cc1)N1CCCC1`, “inactive”; that for `COc1ccc(-c2oc3ncn4nc(Cc5ccccc5)nc4c3c2-c2ccc(OC)cc2)cc1`, “inactive”.
On the same count and under the same terms, the result for `Cc1sccc1C1C(C#N)=C(N)SC(N)=C1C#N` reads “inactive”; that for `N#CCSc1nc2c(c(=O)n1Cc1ccco1)C1(CCCC1)Cc1ccccc1-2`, “inactive”; that for `CCOc1nc(-c2ccccc2)ccc1-c1noc(-c2ccc(OC)c(OC)c2)n1`, “inactive”.
Turning to `Cc1ccc(SCc2c(C#N)c3ccccc3n2C)cc1`, the activation result was “inactive”.
Same read-out and setting: then `COc1cccc(-c2nc(-c3ccc(NC(=O)Cc4ccccc4OC)cc3)no2)c1`, with “inactive”.
Still for that read-out and setting: then `COCCOC(=O)c1c(C)oc2ccc(OC(=O)COc3c(F)c(F)c(F)c(F)c3F)cc12`, with “inactive”.
In the case of `O=c1c2ccccc2sn1-c1ccc(S(=O)(=O)N2CCCCC2)cc1`, the activation entry was “inactive”.
Still for that read-out and setting: the result for `COC(=O)c1ccc(-c2sc3nc(N4CCOCC4)c4c(c3c2N)CCCC4)o1` reads “inactive”; that for `Cc1ccc(-c2nn(-c3ccccc3)cc2/C=C(\C#N)c2cccc(C#N)c2)o1`, “inactive”; that for `CCOC(=O)CSc1nc2cc(C(=O)NCc3ccco3)ccc2c(=O)n1-c1ccc(F)cc1`, “inactive”.
As to `Cc1ccc(Cl)cc1N1CCN(C(=O)CN2C(=O)c3cccc4cccc2c34)CC1`, the activation result was “inactive”.
On the same count and under the same terms, then `CCCCC(=O)O[C@H]1CC[C@H]2[C@@H]3CCc4cc(O)ccc4[C@H]3CC[C@]12C`, with “inactive”.
On the same count and under the same terms, the result for `COC(=O)c1c(NC(=O)c2nn(C)cc2Cl)sc2c1CCCC2` reads “inactive”; that for `COc1ccccc1NC(=O)c1oc2ccccc2c1NC(=O)c1cc(OC)c(OC)c(OC)c1`, “inactive”; that for `O=C(NCCSCc1ccco1)Nc1cccc(Cl)c1`, “inactive”.
Still for that read-out and setting: the result for `C=CCOC(=O)C1=C(C)NC(SCC(=O)Nc2ccc(C)c(Cl)c2)=C(C#N)C1c1ccco1` (stereo not given) reads “inactive”.
`C/C(Cl)=C/Cn1c(SCc2ccc(Cl)cc2)nc2c1c(=O)[nH]c(=O)n2C`: the activation entry was “inactive”.
On to `COc1cccc2c1C(=O)c1c(O)c3c(c(O)c1C2=O)C[C@@](O)(C(=O)CO)C[C@@H]3O[C@H]1C[C@H](N)[C@H](O)[C@H](C)O1`, for which the activation entry was “inactive”.
Regarding `Cc1ccc(-c2cc(C(F)F)nc(N3CCC(C)CC3)n2)cc1`, the activation entry was “inactive”.
Same read-out and setting: then `COC(=O)c1ccccc1NC(=O)c1noc2c1CC(C(C)(C)C)CC2` (stereo not given), with “inactive”.
Take `N#Cc1ccccc1Cn1c(=O)n(Cc2ccc(C(=O)NCc3ccco3)cc2)c(=O)c2ccccc21`: the activation entry is “inactive”.
Still for that read-out and setting: then `CCc1cc2c(=O)c(-c3ccc4c(c3)OCCO4)coc2cc1OC(=O)c1ccco1`, with “inactive”; and `CCCSc1nc(N2CCOCC2)c2c(c1C#N)CCCC2`, with “inactive”.
With `COc1ccc(CN(C(=O)CSc2nnc(-c3ccccc3F)o2)c2ccc(F)cc2)cc1`, the activation result was “inactive”.
In the case of `CC(C)(C)c1cc(-c2ccco2)c(C#N)c(SCC#N)n1`, the activation entry is “inactive”.
